Results: PubChem BioAssay (NCI)
Several values for one entry are separate records, joined by “and”; a condition that tells them apart may be missing. Equal values may be shown once.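 These data come from cells grown in 96-well plates and exposed to compound for 48 hours at five concentrations. GI50 is the concentration that inhibits growth by half. TGI denotes the concentration required for complete inhibition of growth.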

What was measured:
Assay in all cases: NCI tumour cell line growth inhibition, 48 h
LXFL 529 NSCLC = system: LXFL 529 NSCLC
DMS 273 small cell lung = system: DMS 273 small cell lung
DMS 114 small cell lung = system: DMS 114 small cell lung
M19-MEL melanoma = system: M19-MEL melanoma
KM20L2 colon = system: KM20L2 colon
XF 498 CNS = system: XF 498 CNS
HOP-18 NSCLC = system: HOP-18 NSCLC
DLD-1 colon = system: DLD-1 colon
RXF-631 renal = system: RXF-631 renal
SN12K1 renal = system: SN12K1 renal
P388/ADR leukemia = system: P388/ADR leukemia

| SMILES | TGI (LXFL 529 NSCLC) | TGI (DMS 273 small cell lung) | TGI (DMS 114 small cell lung) | TGI (M19-MEL melanoma) | TGI (KM20L2 colon) | TGI (XF 498 CNS) [µM] | TGI (HOP-18 NSCLC) | TGI (DLD-1 colon) | TGI (RXF-631 renal) [µM] | GI50 (LXFL 529 NSCLC) [µM] | GI50 (DMS 273 small cell lung) [µM] | GI50 (DMS 114 small cell lung) [µM] | GI50 (M19-MEL melanoma) [µM] | GI50 (HOP-18 NSCLC) [µM] | GI50 (DLD-1 colon) [µM] | GI50 (KM20L2 colon) | TGI (SN12K1 renal) [µM] | TGI (P388/ADR leukemia) [µM] |
| --- | --- | --- | --- | --- | --- | --- | --- | --- | --- | --- | --- | --- | --- | --- | --- | --- | --- | --- |
| CCCCCCCSc1nc2c(C(=O)OCC)ncn2c2ccccc12 | > 100 µM | > 100 µM | > 100 µM | > 100 µM | > 100 µM | > 100 |  |  |  |  |  |  |  |  |  |  |  |  |
| CN(C)CCCNc1ccc2ncn3c4ccccc4c(=O)c1c23 | > 100 µM |  | > 100 µM | 30.6 µM | 30.4 µM |  | 68.4 µM | 39.6 µM | 26.3 |  |  |  |  |  |  |  |  |  |
| O=S(=O)(Sc1ccc(Cl)cc1)c1ccc(Cl)cc1 | 32.7 µM | 29.6 µM | 28.6 µM | 35.6 µM | 34.1 µM | 53.4 |  | 31.6 µM |  |  |  |  |  |  |  |  |  |  |
| CC(=O)C(O)N1C(=O)C=CC1=O (stereo unspecified) | 28.6 µM and 3.32 µM | 32.2 µM and 28.1 µM | 37.7 µM and 11.1 µM | 30.4 µM and 17.6 µM | 32.8 µM and 3.51 µM | 31.5 | 31.3 µM and 40.5 µM | 23.6 µM and 3.97 µM | 33.9 | 15.3 | 18 | 19.6 | 16.4 | 17.2 | 9.71 | 17.9 µM and 1.9 µM |  |  |
| N#CC(c1ccccc1)c1nc2ccc(=N)cc-2n(O)c1C(C#N)c1ccccc1 (stereo unspecified) | > 100 µM | > 100 µM |  | > 100 µM | > 100 µM | > 100 | > 100 µM | > 100 µM | > 100 |  |  |  |  |  |  |  |  |  |
| Cc1ccc(Oc2ccc(C)cc2[N+](=O)[O-])cc1 | > 100 µM | > 100 µM | > 100 µM | > 100 µM | > 100 µM | 64.5 | > 100 µM | > 100 µM | > 100 |  |  |  |  |  |  |  |  |  |
| Cc1c2cc[n+](CCN3CCCCC3)cc2c(C)c2c1[nH]c1ccc(O)cc12 |  | 17.1 µM | 21.6 µM | 4.93 µM | 34.5 µM |  | 37 µM | 49.6 µM |  |  |  |  |  |  |  |  | 20.3 | 31.8 |
